Experimental data reported in US20260166162A1, “CARBON CHAIN SUBSTANCE FOR REGULATING TRANSMEMBRANE TRANSPORT AND FLUIDITY OF CELL MEMBRANES, AND PREPARATION AND USE THEREOF” (priority 2022, published 2026).
Like-named read-outs stand apart in the source and are kept apart here.

Columns and labels:
Format in all cases: cell-based
human pancreatic β-cells = assay: Insulin secretion from human islet β cells (ELISA of supernatant); details: 6 h
Epithelial cells = assay: Interaction of GFP-labelled complexes with cell membrane of epithelial cells (Example II-52, Table II-30); details: GFP-labelled complex, epithelial cells pretreated 4 hours, n=3
Protocol: The fatty acids were combined with water-soluble small molecules to form a complex, which were labeled with GFP fluorescence to detect cell membrane fluorescence. […] After the cells were stably adhered, the water-soluble fatty acid complexes in the following table were added to the cell culture medium. […] The medium with the drug was pipetted and replaced with normal DMEM medium. […] The green fluorescence intensity was analyzed by imageJ (see Table II-30, n=3).

[1] = system: SARS-CoV-2 pseudovirus (B.1.526.2)
HIV pseudovirus (18A-41) = details: 293T cells pretreated 4 h, n=3
293T cells = assay: Cellular phagocytosis of DiD-loaded lipid vesicles (nano-drugs) by 293T cells (Example II-51, Table II-29); details: 293T cells pretreated 4 h, DiD lipid vesicles 2 h, n=3, untreated control 226.46 ± 1.26
[2] = 100 μM, negative value = promotes infection

Compound: Glucose-docosanedioic acid
- Insulin (human pancreatic β-cells; 2 nM): 0.25 ng/mL
- Insulin (human pancreatic β-cells; 5 nM): 0.27 ng/mL
- Insulin (human pancreatic β-cells; 10 nM): 0.41 ng/mL
- Insulin (human pancreatic β-cells; 50 nM): 0.50 ng/mL
- Insulin (human pancreatic β-cells; 50 μM): 1.41 ng/mL
- Insulin (human pancreatic β-cells; 100 μM): 1.46 ng/mL

Compound: CCCCCC(=O)OC(C)C(N)C(=O)O (stereo not drawn) [Thr-n-hexanoic acid]
- Insulin (human pancreatic β-cells; 2 nM): 0.38 ng/mL
- Insulin (human pancreatic β-cells; 5 nM): 0.37 ng/mL
- Insulin (human pancreatic β-cells; 10 nM): 0.47 ng/mL
- Insulin (human pancreatic β-cells; 50 nM): 0.54 ng/mL
- Insulin (human pancreatic β-cells; 50 μM): 1.41 ng/mL
- Insulin (human pancreatic β-cells; 100 μM): 1.46 ng/mL

Compound: CCCCCCCCCCCCCCCCCCCC(=O)OC(C)C(N)C(=O)O (stereo not drawn) [Thr-arachidic acid]
- Insulin (human pancreatic β-cells; 2 nM): 0.32 ng/mL
- Insulin (human pancreatic β-cells; 5 nM): 0.31 ng/mL
- Insulin (human pancreatic β-cells; 10 nM): 0.43 ng/mL
- Insulin (human pancreatic β-cells; 50 nM): 0.51 ng/mL
- Insulin (human pancreatic β-cells; 50 μM): 1.46 ng/mL
- Insulin (human pancreatic β-cells; 100 μM): 1.42 ng/mL
- Mean fluorescence intensity (Epithelial cells; 0 Hours after medium replaced): 109.4 ± 3.7
- Mean fluorescence intensity (Epithelial cells; 2 Hours after medium replaced): 104.4 ± 5.4
- Mean fluorescence intensity (Epithelial cells; 4 Hours after medium replaced): 91.5 ± 6.7
- Mean fluorescence intensity (Epithelial cells; 8 Hours after medium replaced): 54.3 ± 7.2
- Mean fluorescence intensity (Epithelial cells; 12 Hours after medium replaced): 41.4 ± 3.4
- Mean fluorescence intensity (Epithelial cells; 24 Hours after medium replaced): 34.2 ± 5.2

Compound: CCCC(=O)OCC(N)C(=O)O (stereo not drawn) [Ser-n-butyric acid]
- Insulin (human pancreatic β-cells; 2 nM): 0.41 ng/mL
- Insulin (human pancreatic β-cells; 5 nM): 0.39 ng/mL
- Insulin (human pancreatic β-cells; 10 nM): 0.49 ng/mL
- Insulin (human pancreatic β-cells; 50 nM): 0.53 ng/mL
- Insulin (human pancreatic β-cells; 50 μM): 1.42 ng/mL
- Insulin (human pancreatic β-cells; 100 μM): 1.51 ng/mL

Compound: Uridine diphosphate glucose-dodecanoic acid [UDPGA-C12]
- Inhibition rate (%) ([1]; 0.002 µM): 56.54 ± 3.94%
- Inhibition rate (%) ([1]; 0.005 µM): 79.66 ± 3.69%
- Inhibition rate (%) ([1]; 0.01 µM): 91.38 ± 3.36%
- Inhibition rate (%) ([1]; 0.05 µM): 81.33 ± 1.25%
- Inhibition rate (%) ([1]; 0.1 µM): 87.47 ± 8.23%
- Inhibition rate (%) ([1]; 1 µM): -92.93 ± 0.58%
- Inhibition rate (%) ([1]; 10 µM): 73.16 ± 0.59%
- Inhibition rate (%) ([1]; 50 µM): 67.37 ± 0.54%
- Inhibition rate (%) ([1]; 100 µM): 53.98 ± 0.78%

Compound: CCCCCCCC/C=C\CCCCCCCC(=O)OCCO [Ethylene glycol-OA]
- Inhibition rate (%) (HIV pseudovirus (18A-41); 2 nM): 82.74 ± 5.06%
- Inhibition rate (%) (HIV pseudovirus (18A-41); 5 nM): 83.09 ± 3.25%
- Inhibition rate (%) (HIV pseudovirus (18A-41); 10 nM): 89.89 ± 4.06%
- Inhibition rate (%) (HIV pseudovirus (18A-41); 50 nM): 94.33 ± 6.32%
- Inhibition rate (%) (HIV pseudovirus (18A-41); 100 nM): 93.46 ± 3.23%
- Inhibition rate (%) (HIV pseudovirus (18A-41); 1 μM): -92.33 ± 2.66%
- Inhibition rate (%) (HIV pseudovirus (18A-41); 10 μM): -84.04 ± 6.24%
- Inhibition rate (%) (HIV pseudovirus (18A-41); 50 μM): 79.46 ± 8.46%
- Inhibition rate (%) (HIV pseudovirus (18A-41); [2]): 86.47 ± 5.86%

Compound: Glucose-hexadecanoic acid
- Inhibition rate (%) (HIV pseudovirus (18A-41); 2 nM): 50.54 ± 1.56%
- Inhibition rate (%) (HIV pseudovirus (18A-41); 5 nM): 57.26 ± 6.09%
- Inhibition rate (%) (HIV pseudovirus (18A-41); 10 nM): 86.44 ± 5.03%
- Inhibition rate (%) (HIV pseudovirus (18A-41); 50 nM): 85.46 ± 3.99%
- Inhibition rate (%) (HIV pseudovirus (18A-41); 100 nM): 89.99 ± 5.07%
- Inhibition rate (%) (HIV pseudovirus (18A-41); 1 μM): -94.23 ± 9.06%
- Inhibition rate (%) (HIV pseudovirus (18A-41); 10 μM): -44.88 ± 1.03%
- Inhibition rate (%) (HIV pseudovirus (18A-41); 50 μM): 87.59 ± 5.03%
- Inhibition rate (%) (HIV pseudovirus (18A-41); [2]): 98.87 ± 6.03%

Compound: CCCCCC=CCC=CCCCCCCCC(=O)OC(C)C(N)C(=O)O (stereo not drawn) [Threonine-LA]
- Inhibition rate (%) ([1]; 2 nM, n=3): 55.64 ± 1.68%
- Inhibition rate (%) ([1]; 5 nM, n=3): 71.66 ± 2.98%
- Inhibition rate (%) ([1]; 10 nM, n=3): 80.84 ± 4.59%
- Inhibition rate (%) ([1]; 50 nM, n=3): 79.83 ± 8.55%
- Inhibition rate (%) ([1]; 100 nM, n=3): 75.99 ± 2.66%
- Inhibition rate (%) ([1]; 1 μM, n=3): -82.33 ± 0.87%
- Inhibition rate (%) ([1]; 10 μM, n=3): -124.16 ± 0.47%
- Inhibition rate (%) ([1]; 50 μM, n=3): 71.36 ± 0.48%
- Inhibition rate (%) ([1]; 100 μM, n=3): 87.98 ± 0.55%
- Fluorescence intensity (293T cells; 2 nM): 100.46 ± 4.23
- Fluorescence intensity (293T cells; 5 nM): 64.18 ± 0.47
- Fluorescence intensity (293T cells; 10 nM): 43.39 ± 0.55
- Fluorescence intensity (293T cells; 50 nM): 45.68 ± 0.23
- Fluorescence intensity (293T cells; 100 nM): 54.37 ± 0.63
- Fluorescence intensity (293T cells; 1 uM): 412.90 ± 0.43
- Fluorescence intensity (293T cells; 10 uM): 507.63 ± 0.23
- Fluorescence intensity (293T cells; 50 uM): 64.86 ± 0.19
- Fluorescence intensity (293T cells; 100 uM): 27.22 ± 0.16

Compound: cholyltaurine-tetradecanoic acid [cholyltaurine-C14]
- Inhibition rate (%) ([1]; 2 nM, n=3): 70.54 ± 3.20%
- Inhibition rate (%) ([1]; 5 nM, n=3): 79.66 ± 5.66%
- Inhibition rate (%) ([1]; 10 nM, n=3): 81.84 ± 4.57%
- Inhibition rate (%) ([1]; 50 nM, n=3): 80.88 ± 1.22%
- Inhibition rate (%) ([1]; 100 nM, n=3): 79.06 ± 2.22%
- Inhibition rate (%) ([1]; 1 μM, n=3): -94.23 ± 5.55%
- Inhibition rate (%) ([1]; 10 μM, n=3): 4.26 ± 0.95%
- Inhibition rate (%) ([1]; 50 μM, n=3): 67.55 ± 0.25%
- Inhibition rate (%) ([1]; 100 μM, n=3): 58.98 ± 0.44%
